From ChEMBL document CHEMBL1201862, “PubChem BioAssay data set” (2004)
The source made the active and inactive calls.

Key:
[1] = cytotoxicity in HEK-293T cells, dose response, cytotoxicity control for BCR NF-kB inhibitor project, luminescence, B-cell screen hits (AID 489021); assay type: functional, cell-based;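 note: HEK-293T cells carrying an NF-kB luciferase reporter; cells exposed to compound for about 14 hours before viability readout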
[2] = insulin promoter down-regulators in MIN6 cells, imaging, high-content screening, mouse beta cells (AID 1628); assay type: functional
[3] = cytotoxicity in MIN6 insulinoma cells, dose response, cytotoxicity control, cell-based, mouse insulinoma (AID 2122); assay type: functional;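 note: confirmatory high-throughput counterscreen run to flag cytotoxic compounds; mouse MIN-6 beta cells carrying an insulin promoter eGFP reporter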
Hexokinase HKDC1 = target: T1, Hexokinase HKDC1 (Homo sapiens, UniProt Q2TB90); experiment: HKDC1 hexokinase inhibitors, dose response, biochemical, W721R variant (AID 504729); assay type: functional
T1 sequence (Q2TB90 whole entry): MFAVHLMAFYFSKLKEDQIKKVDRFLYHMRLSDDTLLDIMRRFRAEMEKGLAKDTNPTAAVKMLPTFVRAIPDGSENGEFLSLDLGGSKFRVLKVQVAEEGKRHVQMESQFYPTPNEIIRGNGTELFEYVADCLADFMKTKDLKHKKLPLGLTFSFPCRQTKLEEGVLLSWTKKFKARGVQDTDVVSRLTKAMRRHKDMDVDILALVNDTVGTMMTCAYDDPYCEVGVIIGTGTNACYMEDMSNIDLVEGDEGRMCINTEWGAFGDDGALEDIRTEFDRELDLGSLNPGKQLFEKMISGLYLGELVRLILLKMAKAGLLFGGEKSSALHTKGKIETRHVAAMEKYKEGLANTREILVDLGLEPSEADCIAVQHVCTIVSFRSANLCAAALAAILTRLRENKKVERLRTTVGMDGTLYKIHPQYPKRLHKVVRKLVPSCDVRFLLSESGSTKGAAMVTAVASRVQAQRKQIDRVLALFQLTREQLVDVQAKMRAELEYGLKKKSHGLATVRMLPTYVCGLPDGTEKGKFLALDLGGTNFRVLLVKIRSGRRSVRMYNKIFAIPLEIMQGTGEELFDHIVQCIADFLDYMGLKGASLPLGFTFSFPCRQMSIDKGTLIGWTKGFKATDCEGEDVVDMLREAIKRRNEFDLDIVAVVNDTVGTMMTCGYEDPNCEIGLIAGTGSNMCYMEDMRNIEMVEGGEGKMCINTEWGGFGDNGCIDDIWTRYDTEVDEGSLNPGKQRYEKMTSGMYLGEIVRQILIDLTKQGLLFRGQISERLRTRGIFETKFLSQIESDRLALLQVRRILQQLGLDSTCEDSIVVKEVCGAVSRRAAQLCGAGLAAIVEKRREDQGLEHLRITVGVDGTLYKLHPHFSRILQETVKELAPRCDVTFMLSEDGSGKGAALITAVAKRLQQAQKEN

[4] = target: T2, Kappa-type opioid receptor (Homo sapiens, UniProt P41145); experiment: SAR analysis of small molecule antagonists of the kappa opioid receptor via a luminescent beta-arrestin assay - Set 4. [Related pubchem assays (depositor defined):AID1777, AID1778, AID1785, AID1786, AID1966, AID2133, AID2136, AID2285]; assay type: functional
[5] = target: T2, Kappa-type opioid receptor; experiment: SAR analysis of Antagonists of the Kappa Opioid Receptor (KOR) using an Image-Based Assay - Set 4. [Related pubchem assays (depositor defined):AID1777, AID1785]; assay type: functional
[6] = target: Delta-type opioid receptor (Homo sapiens, UniProt P41143); experiment: SAR Analysis of Antagonists of the DOR Receptor using an Image-Based Assay - Set 3. [Related pubchem assays (depositor defined):AID1777, AID1785]; assay type: functional;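 note: U2OS cells expressing DOR1 and beta-arrestin GFP stimulated with 100 nM SNC80; imaging of GFP-tagged beta-arrestin moving into spots after receptor activation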
Mu-type opioid receptor = Mu-type opioid receptor (Homo sapiens, UniProt P35372); experiment: SAR Analysis of Antagonists of the MOR Receptor using an Image-Based Assay - Set 3. [Related pubchem assays (depositor defined):AID1777, AID1785, AID1786, AID1966, AID2133, AID2136, AID2284, AID2285, AID2420]; assay type: functional
[7] = target: Voltage-dependent T-type calcium channel subunit alpha-1H (Homo sapiens, UniProt O95180); assay type: functional;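 note: channel activity triggered by adding a high calcium stimulation buffer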
CAAX prenyl protease 2 = target: T3, CAAX prenyl protease 2 (Saccharomyces cerevisiae S288c, UniProt Q03530); assay type: biochemical
T3 sequence (Q03530 whole entry): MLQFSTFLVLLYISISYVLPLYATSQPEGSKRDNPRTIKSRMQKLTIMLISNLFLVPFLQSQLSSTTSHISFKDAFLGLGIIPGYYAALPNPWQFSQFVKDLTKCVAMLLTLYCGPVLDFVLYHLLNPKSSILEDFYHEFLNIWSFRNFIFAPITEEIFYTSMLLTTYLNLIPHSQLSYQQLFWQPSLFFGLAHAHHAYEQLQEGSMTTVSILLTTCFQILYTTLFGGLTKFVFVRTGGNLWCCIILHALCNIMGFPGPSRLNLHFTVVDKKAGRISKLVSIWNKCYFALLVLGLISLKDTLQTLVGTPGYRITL

Trypsin = Trypsin (Sus scrofa, UniProt P00761); experiment: porcine trypsin inhibitors, dose response, selectivity assay for Rce1 protease inhibitor project, biochemical, quenched peptide fluorescence, cherry-pick (AID 488789)
[8] = target: T4, Zinc finger protein mex-5 (Caenorhabditis elegans, UniProt Q9XUB2); experiment: MEX-5/TCR-2 RNA interaction inhibitors, dose response, biochemical, C. elegans, fluorescence polarization (AID 1960)
T4 sequence (Q9XUB2 whole entry): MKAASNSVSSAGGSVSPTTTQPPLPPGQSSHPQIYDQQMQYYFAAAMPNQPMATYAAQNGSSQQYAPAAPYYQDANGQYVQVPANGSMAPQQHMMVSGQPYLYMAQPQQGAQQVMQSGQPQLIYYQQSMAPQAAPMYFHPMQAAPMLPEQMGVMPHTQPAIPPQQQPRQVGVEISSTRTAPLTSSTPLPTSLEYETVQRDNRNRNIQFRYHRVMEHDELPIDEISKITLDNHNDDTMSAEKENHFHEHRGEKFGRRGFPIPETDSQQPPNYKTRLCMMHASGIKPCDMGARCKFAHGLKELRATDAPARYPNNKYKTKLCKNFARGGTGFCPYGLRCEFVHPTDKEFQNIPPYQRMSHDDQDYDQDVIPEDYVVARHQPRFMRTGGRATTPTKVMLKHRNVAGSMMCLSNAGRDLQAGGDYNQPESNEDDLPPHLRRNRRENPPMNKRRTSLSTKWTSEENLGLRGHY

[9] = target: T5, Carboxy-terminal domain RNA polymerase II polypeptide A small phosphatase 1 (Homo sapiens, UniProt Q9GZU7); experiment: inhibitors of CTDSP1, concentration-response testing, biochemical assay, absorbance-based, actives from ultra-high-throughput screening (AID 540297); assay type: functional
T5 sequence (Q9GZU7 whole entry): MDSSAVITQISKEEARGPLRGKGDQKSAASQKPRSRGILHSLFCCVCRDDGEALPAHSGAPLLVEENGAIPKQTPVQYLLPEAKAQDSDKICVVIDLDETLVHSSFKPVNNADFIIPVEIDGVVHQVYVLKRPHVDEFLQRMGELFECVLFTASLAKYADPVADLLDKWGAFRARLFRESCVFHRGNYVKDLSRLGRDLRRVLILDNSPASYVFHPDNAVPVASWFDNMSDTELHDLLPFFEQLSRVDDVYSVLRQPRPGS

SUMO-activating enzyme [10] = target: T6, SUMO-activating enzyme (Homo sapiens, UniProt Q9UBT2); experiment: SUMOylation inhibitor hit validation, confirmation, SUMOylation inhibitor project, biochemical, AlphaScreen (AID 2018); assay type: functional
SUMO-activating enzyme [11] = target: T6, SUMO-activating enzyme; experiment: inhibitors of in vitro SUMOylation cascade, primary screen, biochemical, HTRF, uHTS (AID 2006); assay type: protein-complex assay
Cysteine protease ATG4B = target: T7, Cysteine protease ATG4B (Homo sapiens, UniProt Q9Y4P1); assay type: functional;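 note: Fluorescence-based dose-response confirmation assay measuring inhibition of ATG4B activity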
T7 sequence (Q9Y4P1 whole entry): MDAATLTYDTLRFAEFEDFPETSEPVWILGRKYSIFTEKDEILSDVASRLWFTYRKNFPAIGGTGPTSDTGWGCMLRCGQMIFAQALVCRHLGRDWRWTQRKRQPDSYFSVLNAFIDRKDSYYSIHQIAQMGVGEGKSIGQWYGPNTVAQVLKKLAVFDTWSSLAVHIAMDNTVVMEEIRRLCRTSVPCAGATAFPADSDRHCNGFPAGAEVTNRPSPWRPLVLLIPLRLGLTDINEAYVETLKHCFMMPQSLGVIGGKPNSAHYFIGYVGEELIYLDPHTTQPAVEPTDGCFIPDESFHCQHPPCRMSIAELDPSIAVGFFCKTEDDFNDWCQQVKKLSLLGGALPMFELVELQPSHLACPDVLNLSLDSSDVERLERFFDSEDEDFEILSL

Phospholipase A2 = Phospholipase A2 (Homo sapiens, UniProt P04054); assay type: functional;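 note: confirmatory dose-response counterscreen on phospholipase A2, testing hits that came from an ultra-high-throughput screen for ATG4B inhibitors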
[12] = target: T8, RNA-binding protein pos-1 (Caenorhabditis elegans, UniProt G5EF15); experiment: inhibitors of POS-1/mex-3 RNA binding, dose response, biochemical, fluorescence polarization (AID 1964);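 note: purified POS-1 fused to maltose binding protein made in E. coli; potency of compounds blocking POS-1 binding to fluorescent RNA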
T8 sequence (G5EF15 whole entry): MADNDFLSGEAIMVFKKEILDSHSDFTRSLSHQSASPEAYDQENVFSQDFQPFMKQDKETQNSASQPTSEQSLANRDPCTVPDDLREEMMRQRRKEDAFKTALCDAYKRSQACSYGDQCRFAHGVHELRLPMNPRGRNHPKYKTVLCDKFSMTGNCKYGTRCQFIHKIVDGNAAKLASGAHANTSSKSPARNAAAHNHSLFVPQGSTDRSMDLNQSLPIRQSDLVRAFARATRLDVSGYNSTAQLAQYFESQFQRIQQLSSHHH

[13] = Luminescence Cell-Based Dose Retest to Confirm Inhibitors of Cancer Stem Cells. [Related pubchem assays (depositor defined):AID2717, AID2721]; assay type: functional; conditions: Homo sapiens
[14] = target: T9, Scavenger receptor class B member 1 (Mus musculus, UniProt Q61009); experiment: inhibitors of SR-BI mediated HDL lipid uptake, dose response, ldlA[mSR-BI] cells, fluorescence, cherry pick (AID 493194); assay type: functional, cell-based;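 note: cellular uptake of fluorescent DiI-labeled HDL measured as cell fluorescence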
T9 sequence (Q61009 whole entry): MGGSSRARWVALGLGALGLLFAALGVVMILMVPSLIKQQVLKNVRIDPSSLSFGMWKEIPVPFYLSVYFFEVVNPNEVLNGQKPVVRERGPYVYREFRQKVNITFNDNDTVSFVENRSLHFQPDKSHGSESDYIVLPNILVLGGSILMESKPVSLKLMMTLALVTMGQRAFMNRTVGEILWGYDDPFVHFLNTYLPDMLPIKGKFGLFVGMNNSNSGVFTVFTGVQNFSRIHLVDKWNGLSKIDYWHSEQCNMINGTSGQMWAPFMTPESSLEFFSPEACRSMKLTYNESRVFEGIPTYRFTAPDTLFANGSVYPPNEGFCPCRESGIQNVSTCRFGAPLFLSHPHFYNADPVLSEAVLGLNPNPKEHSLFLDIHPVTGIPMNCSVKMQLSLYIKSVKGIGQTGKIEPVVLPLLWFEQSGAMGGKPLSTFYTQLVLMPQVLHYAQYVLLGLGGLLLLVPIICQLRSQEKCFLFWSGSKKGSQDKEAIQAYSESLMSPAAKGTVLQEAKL

Caspase-6 = target: T10, Caspase-6 (Homo sapiens, UniProt P55212); experiment: human caspase-6 inhibitors, dose response, biochemical, VEID-R110 fluorescence, cherry-pick (AID 720632)
T10 sequence (P55212 whole entry): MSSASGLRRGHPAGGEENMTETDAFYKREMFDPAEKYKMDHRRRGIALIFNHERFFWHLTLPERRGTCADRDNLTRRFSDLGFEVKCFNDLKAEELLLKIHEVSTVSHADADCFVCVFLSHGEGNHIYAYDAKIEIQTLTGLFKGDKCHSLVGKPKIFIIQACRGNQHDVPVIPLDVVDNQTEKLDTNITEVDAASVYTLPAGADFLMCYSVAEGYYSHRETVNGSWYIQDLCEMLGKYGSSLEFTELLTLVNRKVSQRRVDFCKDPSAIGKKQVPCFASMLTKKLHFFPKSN

[15] = target: DNA (cytosine-5)-methyltransferase 1 (Homo sapiens, UniProt P26358); experiment: DNMT1 methyltransferase inhibitors, confirmation, biochemical, fluorescent molecular beacon (AID 602386); assay type: functional
ORF 73 = ORF 73 (Human herpesvirus 8, UniProt O40947); experiment: inhibitors of C-LANA binding to LBS DNA, dose response, biochemical, fluorescence polarization, cherry-picked samples (AID 504725); design: species or system Human gammaherpesvirus 8;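 note: fluorescence polarization of a labeled DNA duplex reporting LANA DNA binding; potency is for inhibitors that block LANA binding to the DNA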
Large T antigen = Large T antigen (Simian virus 40, UniProt P03070); assay type: functional, Betapolyomavirus macacae;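 note: Confirmatory-stage PubChem screen for compounds that inhibit SV40 T antigen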
[16] = target: Induced myeloid leukemia cell differentiation protein Mcl-1 (Homo sapiens, UniProt Q07820); assay type: functional

T2 sequence (P41145 whole entry): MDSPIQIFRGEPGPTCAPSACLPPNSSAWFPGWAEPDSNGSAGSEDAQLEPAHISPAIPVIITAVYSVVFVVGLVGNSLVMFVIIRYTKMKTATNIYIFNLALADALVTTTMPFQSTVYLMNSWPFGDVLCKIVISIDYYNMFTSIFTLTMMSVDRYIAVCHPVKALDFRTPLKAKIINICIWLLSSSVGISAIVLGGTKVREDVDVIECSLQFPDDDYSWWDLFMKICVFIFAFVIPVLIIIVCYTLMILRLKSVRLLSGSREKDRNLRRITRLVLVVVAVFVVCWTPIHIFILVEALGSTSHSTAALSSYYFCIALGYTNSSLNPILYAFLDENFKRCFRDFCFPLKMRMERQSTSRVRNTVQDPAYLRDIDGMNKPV
Trypsin, sequence (P00761 whole entry): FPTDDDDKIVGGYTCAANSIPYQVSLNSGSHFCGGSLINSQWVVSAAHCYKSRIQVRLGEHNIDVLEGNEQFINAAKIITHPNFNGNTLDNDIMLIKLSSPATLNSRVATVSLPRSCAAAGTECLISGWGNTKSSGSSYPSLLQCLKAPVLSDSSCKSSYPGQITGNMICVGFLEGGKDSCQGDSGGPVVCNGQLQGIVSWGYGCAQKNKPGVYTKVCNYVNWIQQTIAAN
T6 sequence (Q9UBE0 whole entry): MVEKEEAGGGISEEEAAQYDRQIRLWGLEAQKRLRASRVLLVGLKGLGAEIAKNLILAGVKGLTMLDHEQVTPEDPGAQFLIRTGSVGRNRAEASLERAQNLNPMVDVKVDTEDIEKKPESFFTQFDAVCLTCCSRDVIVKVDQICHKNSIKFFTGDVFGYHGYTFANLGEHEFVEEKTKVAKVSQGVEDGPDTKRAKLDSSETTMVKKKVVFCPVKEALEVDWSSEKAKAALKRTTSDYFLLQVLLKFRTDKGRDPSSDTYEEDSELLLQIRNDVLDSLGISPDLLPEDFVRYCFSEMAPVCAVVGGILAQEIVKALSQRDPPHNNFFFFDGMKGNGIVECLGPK
T6 sequence (Q9UBT2 whole entry): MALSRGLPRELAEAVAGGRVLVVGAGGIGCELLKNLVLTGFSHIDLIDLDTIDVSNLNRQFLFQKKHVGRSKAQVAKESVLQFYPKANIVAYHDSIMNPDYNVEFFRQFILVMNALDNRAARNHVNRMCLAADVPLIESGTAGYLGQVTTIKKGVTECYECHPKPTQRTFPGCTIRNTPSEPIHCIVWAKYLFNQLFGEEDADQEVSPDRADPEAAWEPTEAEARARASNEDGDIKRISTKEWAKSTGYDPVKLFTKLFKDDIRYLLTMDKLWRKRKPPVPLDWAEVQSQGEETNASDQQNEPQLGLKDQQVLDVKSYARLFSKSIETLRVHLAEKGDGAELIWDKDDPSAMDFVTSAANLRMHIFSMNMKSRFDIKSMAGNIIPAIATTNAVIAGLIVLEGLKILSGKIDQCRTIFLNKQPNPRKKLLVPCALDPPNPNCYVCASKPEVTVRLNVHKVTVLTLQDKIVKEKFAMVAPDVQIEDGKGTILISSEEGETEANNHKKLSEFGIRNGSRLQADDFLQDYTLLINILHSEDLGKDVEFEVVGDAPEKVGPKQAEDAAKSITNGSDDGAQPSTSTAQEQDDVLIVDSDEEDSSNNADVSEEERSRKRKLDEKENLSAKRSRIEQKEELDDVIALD
Delta-type opioid receptor, sequence (P41143 whole entry): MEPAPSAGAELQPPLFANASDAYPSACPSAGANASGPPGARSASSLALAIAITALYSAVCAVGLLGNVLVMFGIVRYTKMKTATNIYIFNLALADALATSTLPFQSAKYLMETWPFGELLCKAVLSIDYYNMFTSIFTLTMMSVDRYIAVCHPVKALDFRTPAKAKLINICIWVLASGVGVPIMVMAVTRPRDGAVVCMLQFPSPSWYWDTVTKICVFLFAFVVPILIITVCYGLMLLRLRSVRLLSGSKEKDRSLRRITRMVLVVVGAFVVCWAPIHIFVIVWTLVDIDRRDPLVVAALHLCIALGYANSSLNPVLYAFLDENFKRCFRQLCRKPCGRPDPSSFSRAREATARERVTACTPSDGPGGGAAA
Voltage-dependent T-type calcium channel subunit alpha-1H, sequence (O95180 whole entry): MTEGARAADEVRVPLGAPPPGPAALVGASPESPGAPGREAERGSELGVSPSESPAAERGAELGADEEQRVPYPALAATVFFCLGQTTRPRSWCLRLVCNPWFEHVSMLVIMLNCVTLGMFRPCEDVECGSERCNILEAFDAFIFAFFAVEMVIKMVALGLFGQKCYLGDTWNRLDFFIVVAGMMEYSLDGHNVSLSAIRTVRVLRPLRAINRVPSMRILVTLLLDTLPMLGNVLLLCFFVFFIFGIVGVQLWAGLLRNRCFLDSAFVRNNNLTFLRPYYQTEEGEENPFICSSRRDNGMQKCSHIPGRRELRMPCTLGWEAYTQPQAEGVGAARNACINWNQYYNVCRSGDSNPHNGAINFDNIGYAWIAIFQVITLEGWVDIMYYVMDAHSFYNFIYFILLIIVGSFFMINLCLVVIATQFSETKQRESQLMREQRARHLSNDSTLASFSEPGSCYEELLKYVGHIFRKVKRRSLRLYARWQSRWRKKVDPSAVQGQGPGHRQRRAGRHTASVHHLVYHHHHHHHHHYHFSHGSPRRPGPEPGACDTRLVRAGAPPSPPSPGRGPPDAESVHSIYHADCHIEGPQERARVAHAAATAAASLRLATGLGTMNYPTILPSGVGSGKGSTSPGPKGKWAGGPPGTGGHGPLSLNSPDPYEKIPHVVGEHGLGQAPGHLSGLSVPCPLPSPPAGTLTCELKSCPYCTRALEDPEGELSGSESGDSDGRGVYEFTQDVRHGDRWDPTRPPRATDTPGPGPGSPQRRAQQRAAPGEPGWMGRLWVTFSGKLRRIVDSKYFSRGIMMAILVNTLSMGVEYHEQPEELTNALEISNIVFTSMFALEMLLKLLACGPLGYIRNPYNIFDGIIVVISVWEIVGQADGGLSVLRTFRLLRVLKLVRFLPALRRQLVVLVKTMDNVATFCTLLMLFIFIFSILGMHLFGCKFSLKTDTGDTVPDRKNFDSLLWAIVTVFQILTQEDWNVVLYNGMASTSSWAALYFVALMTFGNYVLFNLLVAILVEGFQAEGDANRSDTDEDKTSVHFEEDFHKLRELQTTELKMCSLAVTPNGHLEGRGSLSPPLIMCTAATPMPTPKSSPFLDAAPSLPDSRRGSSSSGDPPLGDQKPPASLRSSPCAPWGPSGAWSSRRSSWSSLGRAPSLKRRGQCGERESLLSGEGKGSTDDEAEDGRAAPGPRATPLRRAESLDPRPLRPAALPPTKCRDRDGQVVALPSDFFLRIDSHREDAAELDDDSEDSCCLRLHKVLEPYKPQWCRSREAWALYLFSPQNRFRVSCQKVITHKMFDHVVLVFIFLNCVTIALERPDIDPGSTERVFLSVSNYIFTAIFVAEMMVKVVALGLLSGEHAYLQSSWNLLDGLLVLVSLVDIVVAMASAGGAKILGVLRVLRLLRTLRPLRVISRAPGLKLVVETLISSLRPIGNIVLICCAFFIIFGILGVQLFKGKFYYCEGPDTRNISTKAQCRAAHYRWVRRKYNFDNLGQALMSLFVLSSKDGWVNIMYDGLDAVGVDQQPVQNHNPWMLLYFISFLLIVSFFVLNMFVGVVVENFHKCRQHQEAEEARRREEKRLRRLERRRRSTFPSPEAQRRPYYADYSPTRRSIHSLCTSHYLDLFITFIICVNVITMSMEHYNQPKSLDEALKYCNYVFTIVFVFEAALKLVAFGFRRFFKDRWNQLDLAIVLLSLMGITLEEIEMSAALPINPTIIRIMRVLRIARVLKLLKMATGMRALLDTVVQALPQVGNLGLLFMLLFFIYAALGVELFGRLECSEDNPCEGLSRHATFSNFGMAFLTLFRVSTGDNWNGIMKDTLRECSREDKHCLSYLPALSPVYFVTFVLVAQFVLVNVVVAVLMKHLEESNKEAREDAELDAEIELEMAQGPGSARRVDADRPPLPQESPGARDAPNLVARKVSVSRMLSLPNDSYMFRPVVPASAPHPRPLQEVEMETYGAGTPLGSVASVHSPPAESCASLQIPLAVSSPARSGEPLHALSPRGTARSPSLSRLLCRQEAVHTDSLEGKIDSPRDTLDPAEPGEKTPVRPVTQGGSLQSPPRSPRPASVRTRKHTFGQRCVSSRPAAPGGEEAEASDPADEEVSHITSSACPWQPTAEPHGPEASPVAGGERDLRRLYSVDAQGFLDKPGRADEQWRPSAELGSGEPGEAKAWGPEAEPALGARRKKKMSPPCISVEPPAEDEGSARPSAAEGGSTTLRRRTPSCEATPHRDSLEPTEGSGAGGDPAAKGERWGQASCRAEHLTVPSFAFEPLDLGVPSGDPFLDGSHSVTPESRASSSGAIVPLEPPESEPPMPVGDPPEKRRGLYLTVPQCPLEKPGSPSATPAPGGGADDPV
Mu-type opioid receptor, sequence (P35372 whole entry): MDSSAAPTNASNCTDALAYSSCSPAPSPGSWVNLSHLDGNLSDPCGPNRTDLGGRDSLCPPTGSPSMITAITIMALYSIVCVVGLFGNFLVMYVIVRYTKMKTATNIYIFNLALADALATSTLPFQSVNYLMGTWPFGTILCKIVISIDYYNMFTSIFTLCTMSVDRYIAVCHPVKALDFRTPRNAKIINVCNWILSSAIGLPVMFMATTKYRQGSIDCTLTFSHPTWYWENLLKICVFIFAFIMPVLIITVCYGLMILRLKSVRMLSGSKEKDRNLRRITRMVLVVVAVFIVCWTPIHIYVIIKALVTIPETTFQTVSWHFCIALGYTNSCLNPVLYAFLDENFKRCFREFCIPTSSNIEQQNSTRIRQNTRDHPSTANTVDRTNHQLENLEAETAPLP
Phospholipase A2, sequence (P04054 whole entry, the tested form may be a part): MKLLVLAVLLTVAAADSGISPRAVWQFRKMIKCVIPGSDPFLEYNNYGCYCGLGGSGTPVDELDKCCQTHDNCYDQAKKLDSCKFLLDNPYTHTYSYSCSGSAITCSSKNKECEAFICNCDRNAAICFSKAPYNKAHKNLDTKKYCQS

N=c1ccn(Cc2ccccc2Cl)cc1
IC50 [1]: > 80 µM (inactive)
IC50 [2]: 3.37 µM (active)
IC50 [3]: 3.42 µM (active)

CCCCNC(=O)c1sc(=S)n2c1[nH]c(=O)c1ccc(C(=O)NCCc3ccc(OC)c(OC)c3)cc12
IC50 (Hexokinase HKDC1): 35.7 µM (inactive)

CCC(C)c1ccc(S(=O)(=O)NCc2ccc(C(=O)NCCN(Cc3ccccc3)C(C)C)cc2)cc1 (stereo not drawn)
IC50 [4]: 1.6 µM (active)
IC50 [5]: 2.01 µM (active)
IC50 [6]: > 32 µM (inactive)
IC50 (Mu-type opioid receptor): > 32 µM (inactive)

COc1ccc(NC(=O)CN(C)C(=O)C2(c3ccccc3)CCCC2)cc1
IC50 [1]: > 80 µM (inactive)

COc1ccc(N2CCN(CCNC(=O)Cn3c(=O)c4cccn4c4c(C)ccnc43)CC2)cc1
IC50 [4]: 14.1 µM (inactive)
IC50 [5]: > 32 µM (inactive)
IC50 [6]: > 32 µM (inactive)
IC50 (Mu-type opioid receptor): > 32 µM (inactive)

Cc1ccccc1OCC(=O)N(Cc1nc(-c2ccccc2)no1)C(C)C
EC50 [7]: 5.63 µM (active)

Cc1cc(C)n2cc(CSCC(=O)O)nc2n1
AC50 (CAAX prenyl protease 2): 12.1 µM (active)
AC50 (Trypsin): 12 µM (active)

O=C(NCCc1cccnc1)c1cc(COc2ccc(F)cc2Cl)on1
AC50 (CAAX prenyl protease 2): 10.7 µM (active)
AC50 (Trypsin): 8.75 µM (active)

Cc1ccccc1NC(=O)CN1C(=O)S/C(=C\c2ccc(-c3cc(C(=O)O)ccc3C)o2)C1=O
EC50 [8]: 1.68 µM (active)
IC50 [9]: 1.44 µM (active)
IC50 (SUMO-activating enzyme [10]): 2.85 µM (active)
IC50 (SUMO-activating enzyme [11]): 9.45 µM (active)
IC50 (Cysteine protease ATG4B): 2.05 µM (active)
IC50 (Phospholipase A2): 1.77 µM (active)
EC50 [12]: 2.41 µM (active)

c1ccc(C(c2nnnn2Cc2ccco2)N2CCN(c3nc4ccccc4s3)CC2)cc1 (stereo not drawn)
EC50 [7]: 6.65 µM (active)

C=CCCC(=O)Nc1nc(C)c(-c2csc(Nc3ccc(Cl)cc3)n2)s1
AC50 [13]: 2.6 µM (active)
AC50 [14]: 7.3 µM (active)

O=C(O)Cc1c[nH]c2cccc(O)c12
AC50 (Caspase-6): 11.1 µM (active)
IC50 [15]: 6.74 µM (active)
AC50 (ORF 73): 22.1 µM (active)
IC50 (Large T antigen): 23.1 µM (active)
IC50 [16]: 4.87 µM (active)
